Measurements published in US11497740B2, “Use of Jumonji C demethylase inhibitors for the treatment and prevention of chemotherapy resistance and radioresistance in cancer” (THE BOARD OF REGENTS OF THE UNIVERSITY OF TEXAS SYSTEM, priority 2016, dated 2022).

Experiments:
H1299 T18 cells = assay: Microarray gene expression after 24 h treatment, H1299 T18 cells; type: cell-based, human; conditions: for expression difference of top up-regulated gene / gene expression changes (total probes): 24 h; for expression difference of top up-regulated gene / gene expression changes (total probes) / Illumina probes reversed in expression / genes reversed in expression: 0.2 μM JIB-04 or 1 μM GSK-J4; for gene expression changes (total probes): fold changes ≥1.5, P ≤0.05; for Illumina probes reversed in expression / genes reversed in expression: reversal of changes acquired with taxane-platin resistance
Description: Gene expression profiling was performed using Illumina HumanWG-6 V3 BeadArrays (for NSCLC patient tumors) or Illumina HumanHT-12 V4 BeadArrays (for cell lines and xenografts). […] Data were pre-processed using the R package mbcb for background correction (Ding et al., 2008), then log-transformed and quantile-normalized with the R package preprocessCore or using in-house MATRIX software ([…]). Microarray data can be found under GEO accession GSE77209. Log ratios, unpaired t-test p values and color-coded heat maps were obtained using MATRIX. For comparisons involving progressively resistant cell line series, analyses were performed using R package by fitting linear regression model on gene expression data against the log transformed IC50 values as measures of drug response. We fitted beta-uniform mixture model to a set of p-values using the R package ClassComparison. […] For xenograft data, differential gene expression analysis was performed by student's t-test. Using 35 gene signature, unsupervised hierarchical clustering (Eisen et al., 1998) was performed to separate neoadjuvant chemotherapy treated patients into two groups. Clustering was based on Euclidean distance matrix and maximum linkage method. Kaplan-Meier survival analysis and multivariate Cox regression were performed by R survival package and replotted using Graphpad Prism 6.00 (GraphPad Software, La Jolla, Calif. USA). R code is provided in […] report.

H1299 Parental cells = assay: Microarray gene expression after 24 h treatment, H1299 Parental cells; type: cell-based, human; conditions: 0.2 μM JIB-04 or 1 μM GSK-J4, fold changes ≥1.5, P ≤0.05
Description: Gene expression profiling was performed using Illumina HumanWG-6 V3 BeadArrays (for NSCLC patient tumors) or Illumina HumanHT-12 V4 BeadArrays (for cell lines and xenografts). Cell line and xenograft microarrays included biological replicates (Cell lines: 5 for parental, 3 for most resistant variant, 2 for each intermediate resistance time-point; Xenografts: 3 tumors each for parental and resistant group). Data were pre-processed using the R package mbcb for background correction (Ding et al., 2008), then log-transformed and quantile-normalized with the R package preprocessCore or using in-house MATRIX software (MicroArrayTRansformation In eXcel). Microarray data can be found under GEO accession GSE77209.
Log ratios, unpaired t-test p values and color-coded heat maps were obtained using MATRIX. For comparisons involving progressively resistant cell line series, analyses were performed using R package by fitting linear regression model on gene expression data against the log transformed IC50 values as measures of drug response. We fitted beta-uniform mixture model to a set of p-values using the R package ClassComparison. Genes with p-values below the FDR cutoff of 0.1 were considered statistically significant. For xenograft data, differential gene expression analysis was performed by student's t-test. […]

H1299 = assay: Clonogenic survival with ionizing radiation, H1299; type: cell-based, Human; conditions: 16 nM JIB-04; for radiosensitization (clonogenic survival): drug 4 h before IR, 175 nM GSK-J4
Description: (§1) Cells were serially diluted to appropriate concentrations and plated into 60-mm dish in triplicate for 4 h. Then cells were treated with the indicated drugs, and irradiated 4 hours later with graded doses of radiation for concurrent treatment or irradiated and 4 hours later the drugs added for post-treatment. All cells were irradiated at room temperature in ambient air using a 137Cs source (Mark 1-68 irradiator, JL Shepherd & Associated). Surviving colonies were stained with crystal violet approximately 10 to 14 days later and colonies formed with more than 50 cells were counted. Clonogenic fraction of irradiated cells was normalized to the plating efficiency of unirradiated controls. The data are presented as the mean±SD. The curve S=e^−(αD+βD2) was fitted to the experimental data using a least square fit algorithm using the program Sigma Plot 11.0 (Systat Software, Inc.).

A549 = assay: Clonogenic survival with ionizing radiation, A549; type: cell-based, Human; conditions: 25 nM JIB-04; for radiosensitization (clonogenic survival): drug 4 h before IR
Description: as §1

γH2AX foci = assay: Immunofluorescence DSB repair kinetics, γH2AX foci; type: cell-based, Human
Description: (§2) NSCLCs were seeded onto Lab-Tek II Chamber Slides (Thermo Fisher) and 24 hours later pretreated with JIB-04 or DMSO for 4 h. Then cells were exposed to a total dose of 2 Gy (γH2AX and 53BP1) or 10 Gy (RAD-51 and DNAPKcs p-T2609) radiation. For knockdown and overexpression experiments H1299 cells were transfected using the Amaxa Nucleofector; program X-005. Specifically, 3×10^6 were transfected with siRNA duplexes targeting JMJD2A, JMJD2B, Jarid1A, Jarid1b, scrambled siRNA (250 nM final concentration) or expression vectors pCMVHA-JMJD2A, pCMVHA-JMJD2B, pCMVHA-Jarid1A, pCMVHA-Jarid1B, PC-2 for 72 hours, followed by quantification of expression or irradiation. Then, cells were fixed in 4% formaldehyde/PBS for 15 min, permeabilized with 0.5% Triton X-100 for 15 min on ice, and blocked with 5% bovine serum albumin in PBS for 1 h. The slides were incubated with an antibody against phospho-Histone γH2AX (1:1000, 3 h at room temperature), 53BP1 (1:500, 3 h at room temperature), Rad-51 (1:500, 48 hs 4° C.) or DNAPKcs p-T2609 (1:500, 48 hs 4° C.). Alexa Fluor 488-conjugated goat anti-Rabbit, […] goat anti-mouse or rhodamine red-conjugated goat anti-mouse secondaries antibodies were used (1:1000, 1 h at room temperature). Slides were mounted in a Vectashield mounting medium containing 4′,6-diamidino-2-phenylindole (DAPI). Cells were analyzed on a Zeiss upright fluorescent microscope.

53BP1 foci = assay: Immunofluorescence DSB repair kinetics, 53BP1 foci; type: cell-based, Human; conditions: for 53BP1 foci resolution: H1299 and A549, 4 h pretreatment, then IR
Description: as §2

Row | Compound | expression difference of top up-regulated gene (H1299 T18 cells) [fold] | gene expression changes (total probes) (H1299 T18 cells) [probes] | Illumina probes reversed in expression (H1299 T18 cells) | genes reversed in expression (H1299 T18 cells) [genes] | gene expression changes (total probes) (H1299 Parental cells) [probes] | radiosensitization (clonogenic survival) (H1299) | radiosensitization (clonogenic survival) (A549) | defects in γH2AX foci resolution (γH2AX foci; H1299 and A549, 4 h pretreatment, then IR) | 53BP1 foci resolution (53BP1 foci) | top reversed down-regulated gene, fold change (down) (H1299 T18 cells; LEAP2 for JIB-04, TAF9B for GSK-J4) [fold] | top reversed up-regulated gene, fold change (up) (H1299 T18 cells; YPEL2 for JIB-04, BNIP3 for GSK-J4) [fold] | radiosensitization, JIB-04 before IR vs 4 h post-irradiation (H1299) | radiosensitization, JIB-04 before IR vs 4 h post-irradiation (A549) | γH2AX foci remaining unresolved at late time points (γH2AX foci; H1299 and A549, 4 h pretreatment with colony formation IC50 dose, then IR) [%] | γH2AX foci formation and resolution (γH2AX foci; normal HBEC30KT cells, 500 nM JIB-04, 2 Gy) | γH2AX foci resolution (γH2AX foci; prostate cancer cell line LNCap, JIB-04 and IR, data not shown) | 53BP1 foci formation and resolution (53BP1 foci; HCC-95 cells, 35 nM JIB-04 4 h, 2 Gy)
1 | CCOC(=O)CCNc1cc(N2CCc3ccccc3CC2)nc(-c2ccccn2)n1 [GSK-J4] | ~25 | 710 | 110 probes | 108 | 224 | failed to radiosensitize | failed to radiosensitize | not observed | not observed |  |  |  |  |  |  |  | 
2 | Clc1ccc(N/N=C(\c2ccccc2)c2ccccn2)nc1 [JIB-04] | ~16 | 1469 | About 195 probes | 187 | 519 | had a radiosensitization/radioenhancement effect | had a radiosensitization/radioenhancement effect |  | defective | ~5 | ~16 | significantly more robust when administering JIB-04 first | significantly more robust when administering JIB-04 first | > 30 | no defects | defects in γH2AX foci resolution | delayed 53BP1 foci formation and resolution
